Each structure is given as a SMILES string. Counter-ions that a name gives are not always drawn.

One assay concerns the target T1, IRAK4 (Homo sapiens, UniProt Q9NWZ3).
T1 sequence (Q9NWZ3 1-460): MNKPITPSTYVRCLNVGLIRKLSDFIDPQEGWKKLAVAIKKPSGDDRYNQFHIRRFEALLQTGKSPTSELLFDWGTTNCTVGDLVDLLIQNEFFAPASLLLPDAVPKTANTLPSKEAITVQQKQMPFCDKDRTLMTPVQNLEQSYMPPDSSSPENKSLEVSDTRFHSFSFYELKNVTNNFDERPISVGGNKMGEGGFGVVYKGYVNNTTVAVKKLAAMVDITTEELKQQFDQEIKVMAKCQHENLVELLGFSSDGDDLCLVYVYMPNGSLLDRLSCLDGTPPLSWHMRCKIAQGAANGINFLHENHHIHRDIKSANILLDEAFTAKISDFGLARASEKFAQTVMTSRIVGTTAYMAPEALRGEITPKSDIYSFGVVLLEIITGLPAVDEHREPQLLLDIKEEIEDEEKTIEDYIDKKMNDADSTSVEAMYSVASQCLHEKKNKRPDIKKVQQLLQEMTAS
Kind of assay: 2-hour 1 mM ATP IRAK4 Biochemical assay (as above, but with 100 pM IRAK4 and 1 mM ATP). The note with it: IRAK4 MSD BIOCHEMICAL (1 mM ATP) IC50 (μM), 100 pM IRAK4, 2 hours. As for the experimental part:
The 2-hour 10 μM ATP Biochemical Assay employs a MesoScale Detection (MSD) format.
The activity is quenched with 11 μl of 70 mM EDTA, pH 8.
To detect the phosphorylated biotinylated peptide substrate, 30 μl of the quenched reaction mixture is added to equivalent wells of a 384 well streptavidin coated MesoScale plate (Meso Scale Discovery #L21SA-1). After a 1 hour incubation of the plate for 1 hour at room temperature with gentle mixing, the plate wells are washed 3 times with 50 mM Tris, pH 7.5, 150 mM NaCl, 0.02% Tween-20.
A 25 μl volume of 1:500 anti-P-Threonine Rabbit polyclonal Antibody plus 1:500 Goat-anti-Rabbit Sulfo Tag Antibody (Meso Scale Discovery R32AB-1) in 50 mM Tris, pH 7.5, 150 mM NaCl, 0.02% Tween-20 plus 2% BSA is then added to each well. After a 1-hour incubation of the plate for 1 hour at room temperature with gentle mixing, the plate wells are washed, 3 times with 50 mM Tris, pH 7.5, 150 mM NaCl, 0.02% Tween-20. A 40 μl volume of 2×MSD Read Buffer (Meso Scale Discovery R92TC-1) is added to each well, and the plate is read immediately in an MSD Plate Reader (Meso Scale Discovery).
The 2-hour 1 mM ATP IRAK4 Biochemical assay was performed as described above, but with 100 pM IRAK4 and 1 mM ATP.
In the case of `COc1cc(NC(=O)c2cccc(C(F)F)n2)cn2cc(C3CCCOC3)nc12` (racemic) [Example 268, 6-(difluoromethyl)-N-(8-methoxy-2-(tetrahydro-2H-pyran-3-yl)imidazo[1,2-a]pyridin-6-yl)picolinamide], inhibition was half-maximal at 0.002 µM (IC50).
As for `COc1ncccc1C(=O)Nc1cn2cc(C34COC(C)(C3)C4)nc2cc1OC(C)C(F)(F)F` (racemic) [Example 317, 2-methoxy-N-(2-(1-methyl-2-oxabicyclo[2.1.1]hexan-4-yl)-7-((1,1,1-trifluoropropan-2-yl)oxy)imidazo[1,2-a]pyridin-6-yl)nicotinamide], the IC50 – broadly, the concentration at which inhibition is half-maximal – is 0.001 µM.
Compound `CCOc1cc(NC(=O)c2cccc(C(F)F)n2)cn2cc([C@@H]3C4COC[C@H]43)nc12` (relative stereo) [Example 306, N-(2-((1R*,5S*,6s*)-3-oxabicyclo[3.1.0]hexan-6-yl)-8-ethoxyimidazo[1,2-a]pyridin-6-yl)-6-(difluoromethyl)picolinamide] returned a half-maximal inhibitory concentration (IC50) of 0.007 µM.
Same read-out and setting: under `CCOc1cc2nc([C@@H]3C[C@@H]3F)cn2cc1NC(=O)c1cccc(C(F)F)n1` (relative stereo) [Example 519, Cis 6-(difluoromethyl)-N-(7-ethoxy-2-(2-fluorocyclopropyl)imidazo[1,2-a]pyridin-6-yl)picolinamide hydrochloride] stands 0.008 µM; under `COc1cc(NC(=O)c2cccc(C(F)F)n2)cn2cc(C3CCCOC3)nc12` (single isomer, unassigned) [Example 269, 6-(difluoromethyl)-N-(8-methoxy-2-(tetrahydro-2H-pyran-3-yl)imidazo[1,2-a]pyridin-6-yl)picolinamide], 0.004 µM; under `COc1cc(NC(=O)c2cccc(C(F)F)n2)cn2cc(C3CCCOC3)nc12` (single isomer, unassigned) [Example 270, 6-(difluoromethyl)-N-(8-methoxy-2-(tetrahydro-2H-pyran-3-yl)imidazo[1,2-a]pyridin-6-yl)picolinamide], 0.003 µM.
Same read-out and setting: under `COc1nc(NC(=O)c2cccc(C(F)F)n2)cn2cc([C@@]34CC[C@@](C)(C3)OC4)nc12` (single isomer, unassigned) [Example 276, 6-(Difluoromethyl)-N-(8-methoxy-2-((1S*,4R*)-1-methyl-2-oxabicyclo[2.2.1]heptan-4-yl)imidazo[1,2-a]pyrazin-6-yl)picolinamide] stands 0.005 µM; under `COc1nc(NC(=O)c2cccc(C(F)F)n2)cn2cc([C@@]34CC[C@@](C)(C3)OC4)nc12` (single isomer, unassigned) [Example 277, 6-(Difluoromethyl)-N-(8-methoxy-2-((1R*,4S*)-1-methyl-2-oxabicyclo[2.2.1]heptan-4-yl)imidazo[1,2-a]pyrazin-6-yl)picolinamide], 0.007 µM; under `CCOc1cc(NC(=O)c2cccc(C(F)F)n2)cn2cc(C3CCCOC3)nc12` (single isomer, unassigned) [Example 285, 6-(difluoromethyl)-N-(8-ethoxy-2-(tetrahydro-2H-pyran-3-yl)imidazo[1,2-a]pyridin-6-yl)picolinamide], 0.006 µM.
On the same count and under the same terms, in the case of `CCOc1cc(NC(=O)c2cccc(C(F)F)n2)cn2cc(C3CCCOC3)nc12` (single isomer, unassigned) [Example 286, 6-(difluoromethyl)-N-(8-ethoxy-2-(tetrahydro-2H-pyran-3-yl)imidazo[1,2-a]pyridin-6-yl)picolinamide] it was 0.005 µM; in that of `CCOc1cc(NC(=O)c2cccc(C(F)(F)F)n2)cn2cc(C3CCCOC3)nc12` (single isomer, unassigned) [Example 287, N-(8-ethoxy-2-(tetrahydro-2H-pyran-3-yl)imidazo[1,2-a]pyridin-6-yl)-6-(trifluoromethyl)picolinamide], 0.006 µM.
Compound `CCOc1cc(NC(=O)c2cccc(C(F)(F)F)n2)cn2cc(C3CCCOC3)nc12` (single isomer, unassigned) [Example 288, N-(8-ethoxy-2-(tetrahydro-2H-pyran-3-yl)imidazo[1,2-a]pyridin-6-yl)-6-(trifluoromethyl)picolinamide] yielded an IC50 of 0.008 µM.
Still for that read-out and setting: in the case of `COc1nc(NC(=O)c2cccc(C(F)F)n2)cn2cc(C3CCCOC3)nc12` (single isomer, unassigned) [Example 297, 6-(difluoromethyl)-N-(8-methoxy-2-(tetrahydro-2H-pyran-3-yl)imidazo[1,2-a]pyrazin-6-yl)picolinamide] it was 0.004 µM; in that of `COc1nc(NC(=O)c2cccc(C(F)(F)F)n2)cn2cc(C3CCCOC3)nc12` (single isomer, unassigned) [Example 299, N-(8-methoxy-2-(tetrahydro-2H-pyran-3-yl)imidazo[1,2-a]pyrazin-6-yl)-6-(trifluoromethyl)picolinamide], 0.007 µM; in that of `COc1nc(NC(=O)c2cccc(C(F)(F)F)n2)cn2cc(C3CCCOC3)nc12` (single isomer, unassigned) [Example 300, N-(8-methoxy-2-(tetrahydro-2H-pyran-3-yl)imidazo[1,2-a]pyrazin-6-yl)-6-(trifluoromethyl)picolinamide], 0.005 µM.
Same read-out and setting: in the case of `O=C(Nc1cn2cc(C3CCCOC3)nc2c(OC(F)F)n1)c1cccc(C(F)F)n1` (single isomer, unassigned) [Example 302, N-(8-(difluoromethoxy)-2-(tetrahydro-2H-pyran-3-yl)imidazo[1,2-a]pyrazin-6-yl)-6-(difluoromethyl)picolinamide] it was 0.008 µM; in that of `COc1ncccc1C(=O)Nc1cn2cc(C34COC(C)(C3)C4)nc2cc1OC(C)C(F)(F)F` (single isomer, unassigned) [Example 318, 2-methoxy-N-(2-(1-methyl-2-oxabicyclo[2.1.1]hexan-4-yl)-7-((1,1,1-trifluoropropan-2-yl)oxy)imidazo[1,2-a]pyridin-6-yl)nicotinamide], 0.005 µM; in that of `COc1ncccc1C(=O)Nc1cn2cc(C34COC(C)(C3)C4)nc2cc1OC(C)C(F)(F)F` (single isomer, unassigned) [Example 319, 2-methoxy-N-(2-(1-methyl-2-oxabicyclo[2.1.1]hexan-4-yl)-7-((1,1,1-trifluoropropan-2-yl)oxy)imidazo[1,2-a]pyridin-6-yl)nicotinamide], 0.001 µM.
`CCC(C)Oc1c(NC(=O)c2cccnc2OC)cn2cc(C34COC(C)(C3)C4)nc2c1F` (single isomer, unassigned) [Example 327, N-(7-(sec-butoxy)-8-fluoro-2-(1-methyl-2-oxabicyclo[2.1.1]hexan-4-yl)imidazo[1,2-a]pyridin-6-yl)-2-methoxynicotinamide] had an IC50 of 0.02 µM.
Compound `CCC(C)Oc1c(NC(=O)c2cccnc2OC)cn2cc(C34COC(C)(C3)C4)nc2c1F` (single isomer, unassigned) [Example 328, N-(7-(sec-butoxy)-8-fluoro-2-(1-methyl-2-oxabicyclo[2.1.1]hexan-4-yl)imidazo[1,2-a]pyridin-6-yl)-2-methoxynicotinamide] came in with an IC50 of 0.004 µM.
The same measure, in the same setting: under `CCOc1cc2nc(CCCOC)cn2cc1NC(=O)c1cccc(C(F)F)n1` [Example 12, 6-(difluoromethyl)-N-(7-ethoxy-2-(3-methoxypropyl)imidazo[1,2-a]pyridin-6-yl)picolinamide] stands 0.001 µM; under `CCOc1cc2nc(CC3CCOC3)cn2cc1NC(=O)c1cccc(C(F)F)n1` (stereo not shown) [Example 14, 6-(difluoromethyl)-N-(7-ethoxy-2-((tetrahydrofuran-3-yl)methyl)imidazo[1,2-a]pyridin-6-yl)picolinamide], 0.001 µM; under `CCOc1cc2nc(C3CN(CC(F)(F)F)C3)cn2cc1NC(=O)c1cccc(C(F)F)n1` [Example 77, 6-(difluoromethyl)-N-(7-ethoxy-2-(1-(2,2,2-trifluoroethyl)azetidin-3-yl)imidazo[1,2-a]pyridin-6-yl)picolinamide], 0.001 µM.
`CCOc1cc2nc(C3CN(CC(F)F)C3)cn2cc1NC(=O)c1cccc(C(F)F)n1` [Example 78, N-(2-(1-(2,2-difluoroethyl)azetidin-3-yl)-7-ethoxyimidazo[1,2-a]pyridin-6-yl)-6-(difluoromethyl)picolinamide] registered a concentration for half-maximal inhibition (IC50) of 0.001 µM.

The same assay, now with this note: read-out: IRAK4 MSD BIOCHEMICAL (1 mM ATP) IC50, 100 pM IRAK4, 2 hours.
Consider `COc1nc(NC(=O)c2cccc(C(F)F)n2)cn2cc(C3CCCOC3)nc12` (single isomer, unassigned) [Example 298, 6-(difluoromethyl)-N-(8-methoxy-2-(tetrahydro-2H-pyran-3-yl)imidazo[1,2-a]pyrazin-6-yl)picolinamide], for which the half-inhibitory concentration (IC50) is 0.004 µM.

The values above are taken from patent US20220089592A1, “IMIDAZO[1,2-A]PYRIDINYL DERIVATIVES AS IRAK4 INHIBITORS” (priority 2019, published 2022).
